“Also recorded” adds a separate entry of the source. Where two headings read alike, the source gives them in different places.
How the values were obtained:
[1] = pharmacokinetics and brain/plasma ratio in mouse brain; assay type: in vivo, Crl:CD-1 mice; settings: male; for AUC(0-t) / Cmax / Tmax / half-life: mouse brain
Procedure: Male Crl:CD-1 mice of 9~10 weeks of age were purchased from Charles River Laboratories, USA and maintained at standard food and water ad libitum in temperature-controlled room with 12 h on-off light cycle before the experiment. All procedures described were reviewed and approved by the Institutional Animal Care and Use Committee (IACUC) at Frontage Laboratories Inc. For PO dosing, mice were given 11o dissolved in DMSO: PEG400 (1:3, v:v) via gavage. For IV dosing, 11o solubilized in DMSO: PEG400: saline (1:3:6, v:v) were injected into tail veins at dose volume of 1 mL/kg. For IN dosing, 11o solubilized in DMSO and 25 μL of the appropriate dosing solution was placed near the nares to allow animal to inhale the dose. Three mice were sampled from each group for each blood and brain collection time point. Time points are 0.5, 1, 2, 4, 8, 24 h for PO and IN dosing and 0.083, 1, 2, 4, 8 and 24 h for IV dosing. Mice were euthanized by terminal retro-orbital blood collection under isoflurane anesthesia, followed by opening of the thoracic cavity per facility SOPs. A target volume of 1 mL was collected into tubes containing K3EDTA anti-coagulant, inverted several times and held on wet ice until centrifuged under refrigeration (set at 5 °C for 10 min at 2000× g). Resulting plasma were stored in a freezer set to maintain −70 °C until analyzed for 11o concentration. Brain was removed from each animal and weighed following termination, snap frozen and stored until later use. Plasma and brain PK analysis was conducted using WinNolin Version 6.2.1 (Pharsight, Mountain View, CA, USA), operating as a validated software system. Noncompartmental analysis was conducted using the extravascular administration model for oral dosing and the IV bolus model for IV dosing. The peak plasma and brain concentration, time to achieve peak plasma concentration, half-life, and area under the plasma concentration-time curve (Cmax, Tmax, T1/2 and AUC) were calculated from mean plasma concentrations for each sampling time/dose group for 11o. Nominal blood collection times were used for calculation of PK parameters. Dose proportionality was assessed, and bioavailability was calculated for PO dosing.

[2] = tested on: TA98 and TA100; test: AMES bacterial reverse-mutation test; assay type: cell-based; settings: up to 1867 μg/plate; TA98 and TA100, with and without S9
Procedure: The mutagenic potential of 11o was also tested by assessing its ability to reverse mutations in a bacterial mutagenesis study.
AMES bacterial reverse-mutation test was performed at Frontage laboratories inc. (Frontage laboratories, Concord, OH, USA) according to testing facility’s standard operating procedures (SOPs) following OECD guideline 471, “Bacterial Reverse Mutation Test”, and ICH S2(R1), “Guidance on Genotoxicity Testing and Data Interpretation for Pharmaceuticals Intended for Human Use”[19]. Briefly, test system was exposed to test article via plate-incorporation methodology originally described by Ames et al. and updated by Maron and Ames. […] For mutagenicity assay, TA98 and TA100 (tester strains source: Molecular Toxicology Inc. (Boone, NC, USA). TA98 lot number 5464D, part number 71–098L; TA100 lot number 5439D, part number 71–100L) was exposed to vehicle alone and at least 8 concentrations of 11o, with duplicate plates/condition, in both the presence and absence of S9 using the plate incorporation method. […] Following incubation, plates were examined for the condition of the bacterial background lawn and precipitate and recorded. Colonies were enumerated either by visually or by an automatic colony counter (Scan 1200 Automated colony counter and scan software).

[3] = maximum tolerated dose, single oral administration, rat; settings: both sexes, in vivo, single oral administration, male and female Sprague Dawley rats
Procedure: (§1) Rat and dog MTD studies were performed at Frontage Laboratories Inc following testing facility’s SOPs. All procedures described were reviewed and approved by the Institutional Animal Care and Use Committee (IACUC) at Frontage Laboratories Inc.
(§2) For rat MTD study, male and female Sprague Dawley rats (Rattus norvegicus) of 8.1~9.6 weeks of age were purchased from Charles River Laboratories, USA and maintained at standard food and water ad libitum in temperature-controlled room with 12 h on-off light cycle before the experiment. Animals were acclimated to the testing facility for at least 6 to 16 days prior to initiation of dosing. Animals received a single dose of 11o in 0.5% methyl cellulose via oral gavage starting from 150 mg/kg dose level (this initial dose level was selected based on available data and the estimated toxicity using EPA’s toxicity estimation software tool (TEST) version 4.2.1) in 10 mL/kg dose volume. Subsequent doses occurred 3 or 4 days following the previous dose and were increased based on findings from the previous dosing(s). The procedure continued until four dosing events occurred. Animals were observed once in the morning and once in the afternoon throughout the study for clinical observations. Body weights were measured on the day prior to dose administration. […]

[4] = tested on: Sprague Dawley rats; test: as above; settings: in vivo, po
Procedure: as §1, §2

[5] = Crl:CD-1, inhaled or intranasal, 1 mg/kg IN
[6] = Crl:CD-1, inhaled or intranasal, 3 mg/kg IN
[7] = Crl:CD-1, inhaled or intranasal, 10 mg/kg IN

Work on `Cc1cc(Cn2ncc3c(-c4cccc(C#N)c4F)nc(N)nc32)ccc1N` [11o, 3-(6-Amino-1-(4-amino-3-methylbenzyl)-1H-pyrazolo[3,4-d]pyrimidin-4-yl)-2-fluorobenzonitrile] yielded a Kp ([1]; Crl:CD-1, brain/plasma, other: intranasal (IN), placed near the nares, mouse, IN 1, 3 and 10 mg/kg, read-out: B/P ratio, IN dosing groups) of 0.0698 to 0.183, a Kp ([1]; Crl:CD-1, brain/plasma, mouse, PO 1, 3 and 10 mg/kg, read-out: B/P ratio, PO dosing groups) of 0.0242 to 0.167 and an AUC(0-t) [1, 5] of 5.23 ng·h/mL. For the same compound, the Cmax [1, 5] was 9.63 ng/mL, the Tmax [1, 5] was 30 min and the AUC(0-t) [1, 6] was 14.2 ng·h/mL. It also gave a Cmax [1, 6] of 15.9 ng/mL, a Tmax [1, 6] of 30 min and an AUC(0-t) [1, 7] of 81.3 ng·h/mL. It also gave a Cmax [1, 7] of 38.2 ng/mL, a Tmax [1, 7] of 30 min and a half-life [1, 7] of 224 min. The Kp ([1]; Crl:CD-1, mouse, other: IN (intranasal, placed near the nares to inhale), 10 mg/kg IN, Brain AUClast/Plasma AUClast, read-out: B/P Ratio) was 0.183, the Kp ([1]; Crl:CD-1, mouse, other: IN dosing, solution placed near the nares to inhale, 1 mg/kg IN, Brain AUClast/Plasma AUClast, read-out: B/P Ratio) was 0.0698 and the Kp ([1]; Crl:CD-1, mouse, other: IN dosing, solution placed near the nares to inhale, 3 mg/kg IN, Brain AUClast/Plasma AUClast, read-out: B/P Ratio) was 0.0776. The Kp ([1]; Crl:CD-1, mouse, 1 mg/kg IV, Brain AUClast/Plasma AUClast, read-out: B/P Ratio) was 0.741, the Kp ([1]; Crl:CD-1, mouse, 1 mg/kg PO, Brain AUClast/Plasma AUClast, read-out: B/P Ratio) was 0.0242 and the Kp ([1]; Crl:CD-1, mouse, 3 mg/kg PO, Brain AUClast/Plasma AUClast, read-out: B/P Ratio) was 0.0977. It also gave a Kp ([1]; Crl:CD-1, mouse, 10 mg/kg PO, Brain AUClast/Plasma AUClast, read-out: B/P Ratio) of 0.167, an AUC(0-t) ([1]; Crl:CD-1, 1 mg/kg IV) of 246 ng·h/mL and a Cmax ([1]; Crl:CD-1, 1 mg/kg IV) of 410 ng/mL. The Tmax ([1]; Crl:CD-1, 1 mg/kg IV) was 4.98 min, the AUC(0-t) ([1]; Crl:CD-1, 1 mg/kg PO) was 4.26 ng·h/mL and the Cmax ([1]; Crl:CD-1, 1 mg/kg PO) was 5.58 ng/mL. It also gave a Tmax ([1]; Crl:CD-1, 1 mg/kg PO) of 120 min, an AUC(0-t) ([1]; Crl:CD-1, 3 mg/kg PO) of 56.4 ng·h/mL and a Cmax ([1]; Crl:CD-1, 3 mg/kg PO) of 12.8 ng/mL. It also gave a Tmax ([1]; Crl:CD-1, 3 mg/kg PO) of 30 min, a half-life ([1]; Crl:CD-1, 3 mg/kg PO) of 194 min and an AUC(0-t) ([1]; Crl:CD-1, 10 mg/kg PO) of 375 ng·h/mL. It also gave a Cmax ([1]; Crl:CD-1, 10 mg/kg PO) of 48.1 ng/mL, a Tmax ([1]; Crl:CD-1, 10 mg/kg PO) of 120 min and a half-life ([1]; Crl:CD-1, 10 mg/kg PO) of 463 min. For the same compound, the AMES mutagenicity [2] was “did not cause any positive mutagenic response; also recorded: no mutagenicity up to 1867 μg/plate”, the MTD [3] was over 1000 mg/kg and the “body weight loss or mortality in rats” value [4] was “no body weight loss or mortality observed”.
